# Literature values, collected in patent publication US7803755B2, “Molecules for the treatment and prevention of fungal diseases” (priority 2006, dated 2010).
# Counter-ions that a name gives are not always drawn.
# Columns and labels:
# onychomycosis = conditions: after using ciclopirox lacquer
# [1] = test system: Candida species, including Candida albicans
# [2] = test system: Trichophyton rubrum, Trichophyton mentagrophytes, Trichophyton tonsurans, Epidermophyton floccosum, Microsporum canis, Microsporum audouini, and Microsporum …; conditions: wide spectrum of organisms
smiles,measurement,setting,value
Cc1cc(C2CCCCC2)n(O)c(=O)c1 [Ciclopirox],patients rating their onychomycosis as improved,onychomycosis,90%
"CN(C/C=C/c1ccccc1)Cc1cccc2ccccc12 [Naftifine hydrochloride, naftifine hydrochloride]",antifungal activity in vitro,[1],fungistatic activity
same,antifungal activity in vitro,[2],fungicidal activity
